Reference: ChEMBL document CHEMBL1201862, “PubChem BioAssay data set” (2004)
Activity calls are given as the source filed them.

Key:
[1] = M. tuberculosis H37Rv growth inhibitors, H37Rv strain (AID 1626); format: functional
[2] = molecular target: T1, Replicative DNA helicase DnaB (Mycobacterium tuberculosis, UniProt P9WMR3); assay: DnaB intein splicing inhibitors, dose response, biochemical, cell-free fluorescence (AID 449749); format: functional
T1 sequence (P9WMR3 whole entry): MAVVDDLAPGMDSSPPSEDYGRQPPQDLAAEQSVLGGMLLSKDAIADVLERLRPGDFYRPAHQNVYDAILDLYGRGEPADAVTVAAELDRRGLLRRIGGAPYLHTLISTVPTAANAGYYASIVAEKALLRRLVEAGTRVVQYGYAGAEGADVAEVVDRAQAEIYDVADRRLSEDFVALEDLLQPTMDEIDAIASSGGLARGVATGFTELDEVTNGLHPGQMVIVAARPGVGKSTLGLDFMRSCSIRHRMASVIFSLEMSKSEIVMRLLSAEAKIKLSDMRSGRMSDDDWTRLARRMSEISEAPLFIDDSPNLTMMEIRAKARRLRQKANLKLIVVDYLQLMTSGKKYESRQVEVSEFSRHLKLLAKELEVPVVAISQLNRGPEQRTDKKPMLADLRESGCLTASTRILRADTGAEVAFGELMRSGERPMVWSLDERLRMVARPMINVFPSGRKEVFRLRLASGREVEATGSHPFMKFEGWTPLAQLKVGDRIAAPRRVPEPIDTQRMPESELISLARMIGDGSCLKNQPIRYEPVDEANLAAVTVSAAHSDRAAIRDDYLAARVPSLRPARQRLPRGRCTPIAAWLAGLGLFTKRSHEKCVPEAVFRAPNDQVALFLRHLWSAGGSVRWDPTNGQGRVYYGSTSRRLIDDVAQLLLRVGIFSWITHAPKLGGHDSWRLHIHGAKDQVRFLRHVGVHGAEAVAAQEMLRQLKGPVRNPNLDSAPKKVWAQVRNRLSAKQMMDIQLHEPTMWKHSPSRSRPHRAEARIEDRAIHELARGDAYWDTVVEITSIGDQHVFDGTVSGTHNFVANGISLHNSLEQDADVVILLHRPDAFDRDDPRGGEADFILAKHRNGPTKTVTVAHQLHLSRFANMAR

[3] = molecular target: Hepatocyte nuclear factor 4-alpha (Homo sapiens, UniProt P41235); format: functional, cell-based;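 also: biochemical luminescence-based dose-response counterscreen measuring inhibition of HNF4 dimerization, run alongside a screen for blockers of ABHD5–perilipin-5 interaction; split luciferase complementation of HNF4 fusion proteins in cell lysate measuring dimerization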
[4] = Intein inhibitors as potential Tuberculosis drugs, a cytotoxicity screen. [Related pubchem assays (depositor defined):AID2221, AID2223, AID434968, AID435010, AID449749, AID449750, AID489010]; format: functional
Protein RecA = molecular target: T2, Protein RecA (Mycobacterium tuberculosis, UniProt P9WHJ3); assay: Fluorescence Cell-Free Homogeneous Dose Retest to Identify Inhibitors of RecA-Intein Splicing Activity. [Related pubchem assays (depositor defined):AID2097, AID2223, AID489010, AID492950]; format: functional
T2 sequence (P9WHJ3 whole entry): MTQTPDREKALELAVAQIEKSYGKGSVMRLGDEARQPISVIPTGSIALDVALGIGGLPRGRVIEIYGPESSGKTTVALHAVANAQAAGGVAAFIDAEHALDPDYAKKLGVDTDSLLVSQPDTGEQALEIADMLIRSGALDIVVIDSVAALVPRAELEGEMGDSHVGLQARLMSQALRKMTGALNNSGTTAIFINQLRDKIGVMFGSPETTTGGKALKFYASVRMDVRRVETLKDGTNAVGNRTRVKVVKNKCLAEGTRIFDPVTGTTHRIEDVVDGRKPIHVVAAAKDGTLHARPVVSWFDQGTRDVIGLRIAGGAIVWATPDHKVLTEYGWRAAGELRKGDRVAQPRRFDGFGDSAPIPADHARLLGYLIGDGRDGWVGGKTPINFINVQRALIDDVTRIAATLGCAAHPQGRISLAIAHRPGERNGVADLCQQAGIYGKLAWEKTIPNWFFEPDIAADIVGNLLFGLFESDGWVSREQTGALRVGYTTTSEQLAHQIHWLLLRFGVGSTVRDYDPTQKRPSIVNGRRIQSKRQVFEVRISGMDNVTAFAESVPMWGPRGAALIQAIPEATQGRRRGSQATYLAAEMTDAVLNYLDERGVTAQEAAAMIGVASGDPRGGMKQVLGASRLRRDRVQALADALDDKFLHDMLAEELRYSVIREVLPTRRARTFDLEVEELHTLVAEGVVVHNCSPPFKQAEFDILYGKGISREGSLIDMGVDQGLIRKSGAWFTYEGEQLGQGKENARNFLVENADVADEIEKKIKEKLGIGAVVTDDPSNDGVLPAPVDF

[5] = Luminescence Cell-Based Dose Retest to Confirm Inhibitors of Cancer Stem Cells. [Related pubchem assays (depositor defined):AID2717, AID2721]; format: functional; details: Homo sapiens
[6] = molecular target: Potassium voltage-gated channel subfamily KQT member 2 (Rattus norvegicus, UniProt O88943, W236L); assay: potentiation of rat KCNQ2 current – cell-based, automated electrophysiology, mechanism study for KCNQ2 potentiator project, dose response (AID 2603); format: functional
Genome polyprotein = Genome polyprotein (dengue virus type 2, UniProt P29990); assay: flavivirus cap methylation enzyme inhibition – biochemical, confirmation dose response, primary screen (AID 588689); format: functional
[7] = reduction of Shn3 3'UTR-driven luciferase in osteoblasts – cell-based, Clone20 osteoblasts, firefly luciferase, cherry-picked, dose response (AID 624132); format: functional;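 also: firefly luciferase luminescence from reporter carrying the Shn3 3'UTR in osteoblasts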
[8] = non-specific 3'UTR reporter inhibition in Clone20-Shn3RL – cell-based, Renilla luciferase, cherry-picked, counter-screen for Shn3 inhibitor project, dose response (AID 624133); format: functional
Vero = assay: viability of Vero cells under compound – cytotoxicity control for flavivirus capping enzyme inhibitors (AID 588742); format: functional; details: Chlorocebus sabaeus
[9] = molecular target: Protein-tyrosine kinase 2-beta (Homo sapiens, UniProt Q14289);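 also: potency of inhibitors of PYK2 kinase phosphorylation of poly-GT substrate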
[10] = molecular target: Glyceraldehyde-3-phosphate dehydrogenase (Homo sapiens, UniProt P04406)
[11] = molecular target: T3, Induced myeloid leukemia cell differentiation protein Mcl-1 (Homo sapiens, UniProt Q07820); assay: blockers of MCL1 binding to BIM peptide – biochemical, fluorescence polarization, BIM-BH3 peptide, 1536-well, dose response (AID 2217)
[12] = molecular target: T4, Dual specificity protein phosphatase 6 (Rattus norvegicus, UniProt Q64346); format: functional
T4 sequence (Q64346 whole entry): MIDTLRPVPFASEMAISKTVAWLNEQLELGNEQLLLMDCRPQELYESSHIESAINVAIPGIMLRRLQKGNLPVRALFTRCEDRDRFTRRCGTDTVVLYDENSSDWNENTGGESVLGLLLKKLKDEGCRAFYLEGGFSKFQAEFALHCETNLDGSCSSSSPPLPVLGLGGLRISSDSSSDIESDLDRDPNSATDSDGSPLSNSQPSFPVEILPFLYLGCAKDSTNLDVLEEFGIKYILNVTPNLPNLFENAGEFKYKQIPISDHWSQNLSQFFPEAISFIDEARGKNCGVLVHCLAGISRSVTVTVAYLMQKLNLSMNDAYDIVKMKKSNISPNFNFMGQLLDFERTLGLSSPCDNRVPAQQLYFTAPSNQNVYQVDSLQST

[13] = molecular target: T3, Induced myeloid leukemia cell differentiation protein Mcl-1; format: functional
[14] = molecular target: T5, Tyrosine-protein phosphatase non-receptor type 7 (Homo sapiens, UniProt P35236); format: functional
T5 sequence (P35236 whole entry): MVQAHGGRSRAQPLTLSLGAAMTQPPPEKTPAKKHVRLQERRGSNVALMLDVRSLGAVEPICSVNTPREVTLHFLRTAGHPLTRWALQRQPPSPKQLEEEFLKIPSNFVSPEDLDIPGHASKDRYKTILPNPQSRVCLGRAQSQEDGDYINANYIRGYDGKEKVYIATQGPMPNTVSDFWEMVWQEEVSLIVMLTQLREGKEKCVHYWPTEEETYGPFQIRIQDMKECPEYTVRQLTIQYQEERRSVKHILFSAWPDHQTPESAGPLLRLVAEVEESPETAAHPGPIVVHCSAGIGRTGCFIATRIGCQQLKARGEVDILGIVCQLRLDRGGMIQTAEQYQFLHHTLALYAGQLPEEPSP

Bcl-2-like protein 1 = Bcl-2-like protein 1 (Homo sapiens, UniProt Q07817); assay: blockers of BCLXL peptide binding – biochemical, fluorescence polarization, 1536-well, selectivity assay for MCL1 inhibitor project, dose response (AID 2218)
[15] = molecular target: T4, Dual specificity protein phosphatase 6
[16] = Luminescence Cell-Based Dose Response to Identify Activators of Luciferase Translation or Activity in H4-C Neuroglioblastoma Cells. [Related pubchem assays: 1829 (Project Summary), 1814 (Primary HTS)]; format: functional
H4 = assay: Luminescence Cell-Based Dose Response HTS to Identify Activators of 5'UTR Stem-Loop Driven Prion Protein mRNA Translation in H4 Neuroglioblastoma Cells. [Related pubchem assays: 1829 (Project Summary), 1814 (Primary HTS)]; format: functional; details: Homo sapiens
[17] = Luminescence Cell-Based Dose Response HTS to Identify Activators of Luciferase Translation or Activity in H4 […] Cells. [Related pubchem assays: 1829 (Project Summary), 1814 (Primary HTS)]; format: functional
[18] = Luminescence Cell-Based Dose Confirmation to Identify Activators of 5'UTR Stem-Loop Driven Alpha-Synuclein mRNA Translation in H4 Neuroglioblastoma Cells. [Related pubchem assays: 1829 (Project Summary), 1814 (Primary HTS)]; format: functional
[19] = Luminescence Cell-Based Dose Response to Identify Activators of 5'UTR Stem-Loop Driven Prion Protein mRNA Translation in H4-C Neuroglioblastoma Cells. [Related pubchem assays: 1829 (Project Summary), 1814 (Primary HTS)]; format: functional
NADPH oxidase 1 = molecular target: T6, NADPH oxidase 1 (Homo sapiens, UniProt Q9Y5S8); assay: Luminescence-based cell-based dose response assay to identify inhibitors of NADPH oxidase 1 (NOX1).; format: functional
T6 sequence (Q9Y5S8 whole entry): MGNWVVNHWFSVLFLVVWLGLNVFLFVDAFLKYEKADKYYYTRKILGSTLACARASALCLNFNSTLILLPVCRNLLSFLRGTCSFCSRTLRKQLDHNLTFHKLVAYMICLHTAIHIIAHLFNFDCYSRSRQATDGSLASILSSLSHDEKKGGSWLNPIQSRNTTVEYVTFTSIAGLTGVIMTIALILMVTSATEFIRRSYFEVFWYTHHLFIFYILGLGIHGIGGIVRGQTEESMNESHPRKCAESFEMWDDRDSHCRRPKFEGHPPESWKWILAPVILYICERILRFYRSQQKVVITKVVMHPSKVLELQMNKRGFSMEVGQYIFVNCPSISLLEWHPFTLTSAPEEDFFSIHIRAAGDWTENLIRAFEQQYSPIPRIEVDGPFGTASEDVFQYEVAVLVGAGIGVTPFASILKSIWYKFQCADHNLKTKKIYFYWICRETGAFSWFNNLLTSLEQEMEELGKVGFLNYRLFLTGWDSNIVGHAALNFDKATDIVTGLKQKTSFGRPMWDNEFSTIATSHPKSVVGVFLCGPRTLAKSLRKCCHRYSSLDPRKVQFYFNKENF

[20] = molecular target: T7, Mannose-6-phosphate isomerase (Homo sapiens, UniProt P34949); assay: MPI enzyme activity inhibition – biochemical, fluorescence intensity, coupled assay, primary screen (AID 1209)
T7 sequence (P34949 whole entry): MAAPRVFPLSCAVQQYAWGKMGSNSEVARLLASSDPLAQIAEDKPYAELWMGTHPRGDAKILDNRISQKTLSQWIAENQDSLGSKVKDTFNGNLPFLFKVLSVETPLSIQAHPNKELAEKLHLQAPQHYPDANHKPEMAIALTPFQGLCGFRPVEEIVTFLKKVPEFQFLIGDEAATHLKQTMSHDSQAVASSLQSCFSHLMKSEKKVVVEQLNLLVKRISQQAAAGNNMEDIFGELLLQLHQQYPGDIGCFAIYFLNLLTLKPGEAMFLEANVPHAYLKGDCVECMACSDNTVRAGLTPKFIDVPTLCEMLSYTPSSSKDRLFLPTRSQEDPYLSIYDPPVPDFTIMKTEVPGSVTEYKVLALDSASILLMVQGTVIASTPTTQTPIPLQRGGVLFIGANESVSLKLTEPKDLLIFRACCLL

T3 sequence (Q07820 whole entry): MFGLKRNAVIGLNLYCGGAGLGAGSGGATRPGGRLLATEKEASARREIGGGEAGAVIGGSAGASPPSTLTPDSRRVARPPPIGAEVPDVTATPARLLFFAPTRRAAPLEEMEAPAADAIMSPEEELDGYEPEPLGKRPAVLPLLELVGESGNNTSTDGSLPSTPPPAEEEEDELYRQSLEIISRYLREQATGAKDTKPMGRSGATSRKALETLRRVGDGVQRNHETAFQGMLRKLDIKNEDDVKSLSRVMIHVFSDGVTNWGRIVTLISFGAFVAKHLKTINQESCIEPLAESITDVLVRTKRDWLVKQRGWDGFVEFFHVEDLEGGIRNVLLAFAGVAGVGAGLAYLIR
Chain of Hepatocyte nuclear factor 4-alpha (P41235 whole entry, the tested form may be a part): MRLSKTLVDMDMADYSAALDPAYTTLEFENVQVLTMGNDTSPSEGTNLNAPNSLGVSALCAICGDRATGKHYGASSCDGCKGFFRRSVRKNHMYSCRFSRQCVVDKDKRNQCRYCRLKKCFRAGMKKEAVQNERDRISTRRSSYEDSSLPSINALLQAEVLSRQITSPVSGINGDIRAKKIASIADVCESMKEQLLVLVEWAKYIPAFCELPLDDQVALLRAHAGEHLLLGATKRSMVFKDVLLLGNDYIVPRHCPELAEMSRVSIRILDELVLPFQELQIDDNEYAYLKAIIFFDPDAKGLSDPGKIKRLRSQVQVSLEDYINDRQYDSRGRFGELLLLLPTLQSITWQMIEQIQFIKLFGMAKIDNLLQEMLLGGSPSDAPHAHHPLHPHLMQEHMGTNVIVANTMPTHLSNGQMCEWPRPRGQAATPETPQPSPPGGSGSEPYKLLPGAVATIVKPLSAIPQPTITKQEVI
Chain of Bcl-2-like protein 1 (Q07817 whole entry): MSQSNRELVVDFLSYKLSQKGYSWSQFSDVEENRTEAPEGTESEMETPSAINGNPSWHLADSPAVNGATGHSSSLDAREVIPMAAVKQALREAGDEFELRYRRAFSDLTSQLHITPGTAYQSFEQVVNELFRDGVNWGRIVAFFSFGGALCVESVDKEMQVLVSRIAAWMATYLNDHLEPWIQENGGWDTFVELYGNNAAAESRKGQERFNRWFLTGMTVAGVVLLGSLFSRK
Chain of Potassium voltage-gated channel subfamily KQT member 2 (O88943 whole entry W236L): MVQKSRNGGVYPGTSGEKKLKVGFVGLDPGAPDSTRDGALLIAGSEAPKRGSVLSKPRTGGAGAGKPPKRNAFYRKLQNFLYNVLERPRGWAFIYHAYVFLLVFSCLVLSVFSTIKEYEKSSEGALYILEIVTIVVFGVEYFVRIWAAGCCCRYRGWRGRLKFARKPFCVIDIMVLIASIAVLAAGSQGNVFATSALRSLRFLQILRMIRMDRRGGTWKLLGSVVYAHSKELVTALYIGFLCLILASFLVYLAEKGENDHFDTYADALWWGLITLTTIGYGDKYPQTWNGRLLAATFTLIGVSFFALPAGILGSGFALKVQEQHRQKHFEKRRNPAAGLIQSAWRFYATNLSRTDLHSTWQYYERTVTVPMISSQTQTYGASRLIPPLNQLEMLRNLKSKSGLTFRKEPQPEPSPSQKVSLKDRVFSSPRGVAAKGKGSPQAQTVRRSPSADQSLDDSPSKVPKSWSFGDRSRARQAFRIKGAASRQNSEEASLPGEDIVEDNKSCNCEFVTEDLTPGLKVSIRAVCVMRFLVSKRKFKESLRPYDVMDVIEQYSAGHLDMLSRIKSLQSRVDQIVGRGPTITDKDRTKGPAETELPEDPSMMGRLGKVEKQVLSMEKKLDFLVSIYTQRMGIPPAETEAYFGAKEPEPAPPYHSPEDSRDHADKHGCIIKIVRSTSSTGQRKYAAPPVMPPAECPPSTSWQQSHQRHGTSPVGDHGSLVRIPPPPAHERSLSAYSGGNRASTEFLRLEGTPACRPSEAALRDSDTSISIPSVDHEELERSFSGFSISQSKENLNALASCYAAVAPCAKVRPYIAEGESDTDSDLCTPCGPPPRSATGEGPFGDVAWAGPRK
Chain of Glyceraldehyde-3-phosphate dehydrogenase (P04406 whole entry): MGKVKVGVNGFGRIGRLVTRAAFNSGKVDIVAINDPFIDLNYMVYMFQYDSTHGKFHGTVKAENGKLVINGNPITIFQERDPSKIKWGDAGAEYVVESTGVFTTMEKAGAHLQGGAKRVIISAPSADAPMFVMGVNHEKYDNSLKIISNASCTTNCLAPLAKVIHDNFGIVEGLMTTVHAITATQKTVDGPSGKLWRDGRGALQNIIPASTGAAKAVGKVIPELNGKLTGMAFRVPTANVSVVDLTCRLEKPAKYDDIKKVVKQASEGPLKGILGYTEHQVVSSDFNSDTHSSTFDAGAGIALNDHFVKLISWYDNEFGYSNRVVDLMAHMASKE
Chain of Genome polyprotein (P29990 2492-3391 limits assumed): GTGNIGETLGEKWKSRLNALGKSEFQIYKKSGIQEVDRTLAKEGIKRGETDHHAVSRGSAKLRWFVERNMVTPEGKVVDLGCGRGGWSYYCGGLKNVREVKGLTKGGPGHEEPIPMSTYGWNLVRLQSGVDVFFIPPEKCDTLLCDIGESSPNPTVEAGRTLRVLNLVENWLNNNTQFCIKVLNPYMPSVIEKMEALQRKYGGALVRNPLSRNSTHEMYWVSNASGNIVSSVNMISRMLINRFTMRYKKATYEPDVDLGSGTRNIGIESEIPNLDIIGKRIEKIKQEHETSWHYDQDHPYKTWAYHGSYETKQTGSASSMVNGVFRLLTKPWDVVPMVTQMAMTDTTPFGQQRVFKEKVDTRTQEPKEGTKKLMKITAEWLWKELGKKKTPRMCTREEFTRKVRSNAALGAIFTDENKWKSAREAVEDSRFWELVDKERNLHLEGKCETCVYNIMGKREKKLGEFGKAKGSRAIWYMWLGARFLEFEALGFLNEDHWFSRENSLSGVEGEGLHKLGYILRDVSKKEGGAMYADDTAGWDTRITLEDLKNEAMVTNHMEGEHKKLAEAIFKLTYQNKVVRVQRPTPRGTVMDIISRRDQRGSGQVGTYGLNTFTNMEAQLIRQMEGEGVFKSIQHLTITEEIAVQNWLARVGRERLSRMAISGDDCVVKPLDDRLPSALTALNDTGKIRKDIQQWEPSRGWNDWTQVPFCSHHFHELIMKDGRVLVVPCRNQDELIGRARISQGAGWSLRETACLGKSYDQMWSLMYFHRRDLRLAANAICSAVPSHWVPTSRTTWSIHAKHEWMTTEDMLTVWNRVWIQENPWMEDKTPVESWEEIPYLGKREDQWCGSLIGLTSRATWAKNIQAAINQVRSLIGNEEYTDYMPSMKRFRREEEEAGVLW
Chain of Protein-tyrosine kinase 2-beta (Q14289 whole entry): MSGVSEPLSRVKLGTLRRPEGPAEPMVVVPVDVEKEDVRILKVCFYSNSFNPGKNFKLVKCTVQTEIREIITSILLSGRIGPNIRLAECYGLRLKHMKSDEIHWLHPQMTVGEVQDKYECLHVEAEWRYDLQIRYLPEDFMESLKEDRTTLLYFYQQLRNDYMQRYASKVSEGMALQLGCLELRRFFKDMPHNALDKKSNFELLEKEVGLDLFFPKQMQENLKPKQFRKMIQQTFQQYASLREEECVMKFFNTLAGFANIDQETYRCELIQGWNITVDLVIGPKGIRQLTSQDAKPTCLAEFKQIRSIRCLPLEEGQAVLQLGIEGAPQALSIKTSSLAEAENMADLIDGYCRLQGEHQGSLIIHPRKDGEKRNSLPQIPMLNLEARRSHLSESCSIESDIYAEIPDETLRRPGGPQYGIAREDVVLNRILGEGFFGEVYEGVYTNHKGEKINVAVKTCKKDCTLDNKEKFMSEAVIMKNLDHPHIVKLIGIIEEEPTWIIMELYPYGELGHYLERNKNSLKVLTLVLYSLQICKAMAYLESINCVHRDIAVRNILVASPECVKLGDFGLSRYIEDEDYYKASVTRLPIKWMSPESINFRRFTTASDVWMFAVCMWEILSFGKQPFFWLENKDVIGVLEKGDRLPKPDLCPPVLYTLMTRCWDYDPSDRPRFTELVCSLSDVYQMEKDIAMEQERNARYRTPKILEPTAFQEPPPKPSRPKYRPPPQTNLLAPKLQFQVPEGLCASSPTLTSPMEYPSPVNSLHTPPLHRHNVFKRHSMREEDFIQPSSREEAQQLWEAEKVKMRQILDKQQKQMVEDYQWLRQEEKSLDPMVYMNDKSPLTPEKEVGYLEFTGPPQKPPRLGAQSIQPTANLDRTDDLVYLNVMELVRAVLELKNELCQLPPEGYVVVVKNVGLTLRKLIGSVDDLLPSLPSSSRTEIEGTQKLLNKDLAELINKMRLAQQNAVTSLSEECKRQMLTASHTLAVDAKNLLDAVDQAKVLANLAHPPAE

Structure (SMILES): Nc1ccc(N=Nc2ccccc2)cc1
- IC50 [1]: > 100 µM (active)

Structure (SMILES): CSc1nnc(NC(=O)c2nc(S(=O)(=O)Cc3ccccc3F)ncc2Cl)s1
- AC50 [2]: 5 µM (active)
- IC50 [3]: 3.98 µM (active)
- CC50 [4]: 35.4 µM (active)
- EC50 (Protein RecA): 3.5 µM (active)
- AC50 [5]: 2.14 µM (active)
- EC50 [6]: 4.19 µM (active)
- IC50 (Genome polyprotein): 52.3 µM (active)
- AC50 [7]: 1.55 µM (active)
- AC50 [8]: 13 µM (active)
- CC50 (Vero): 27.8 µM (active)

Structure (SMILES): Cc1cc(NC(=O)Cc2cccs2)no1
- IC50 [9]: 6.64 µM (active)
- IC50 [10]: 92.2 µM (active)
- IC50 [11]: 4.05 µM (active)
- IC50 [12]: 13.1 µM (active)
- IC50 [13]: 1.58 µM (active)
- IC50 [14]: 3.93 µM (active)
- IC50 (Bcl-2-like protein 1): 53.2 µM (not active)
- IC50 [15]: 15.3 µM (active)

Structure (SMILES): Cc1cc(C(=O)ON=C(N)c2ccc(C(C)(C)C)cc2)no1
- EC50 [16]: 0.442 µM (active)
- EC50 (H4): 110 µM (active)
- EC50 [17]: < 0.1 µM (inconclusive)
- EC50 [18]: 0.737 µM (active)
- EC50 [19]: 1.78 µM (active)

Structure (SMILES): CCOc1ccc(NC(=O)Nc2ccc(N(C)C(C)=O)cc2)cc1
- IC50 (NADPH oxidase 1): > 20 µM (not active)

Structure (SMILES): CCOC(=O)NC1(Nc2cccc(Cl)c2)Oc2ccccc2O1
- IC50 [20]: > 50 µM (not active)
